Literature values as cited in patent US8637073B2 (priority 2003, dated 2014).

Conditions: maintenance of opioid-dependent pregnant women; Eder et al. 2001

CCC(=O)C(CC(C)N(C)C)(c1ccccc1)c1ccccc1 (stereo not shown) [methadone]
neonates in which neonatal abstinence syndrome (NAS) is observed: 60-80%
